25 compounds from patent publication US8785460B2, “Tricyclic compounds and use thereof” (Takeda Pharmaceutical Company Limited, priority 2008, dated 2014) can be followed below.

In general, pIC50 refers to −log10 of the IC50, conventionally taken in molar units. By melting point is commonly meant the temperature of the solid-liquid transition.

pIC50: −log10 of the molar value. A value given as a limit tells only on which side of the number the result lay.

For one data set, the target named is T1, human CRF1 receptor (Homo sapiens, UniProt P34998).
T1 construct: expressed in transfected cells; host or cells: CHO cells (membrane fraction)
T1 sequence (P34998 24-415): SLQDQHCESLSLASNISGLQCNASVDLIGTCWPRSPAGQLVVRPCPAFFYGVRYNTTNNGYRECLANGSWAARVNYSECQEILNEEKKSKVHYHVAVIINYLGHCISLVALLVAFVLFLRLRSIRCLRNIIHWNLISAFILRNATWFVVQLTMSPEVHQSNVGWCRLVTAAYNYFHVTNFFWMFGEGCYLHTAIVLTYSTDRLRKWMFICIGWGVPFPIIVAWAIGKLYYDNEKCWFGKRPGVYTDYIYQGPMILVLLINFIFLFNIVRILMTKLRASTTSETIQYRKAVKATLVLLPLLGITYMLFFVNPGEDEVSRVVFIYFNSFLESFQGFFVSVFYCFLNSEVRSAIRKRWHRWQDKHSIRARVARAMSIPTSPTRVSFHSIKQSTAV
In words: Measurement of CRF Binding Inhibitory Rate (receptor binding experiment with 125I-CRF). As to conditions: human CRF1 receptor expressing CHO cellular membrane fraction, 50 pM 125I-CRF, room temperature 1.5 hr, 0.05 nM to 10 μM of compound; read-out: IC50 values (CRF binding inhibition).

`CCOC(CC)c1ccc(Cl)c2nc3n(c12)CCCN3c1ccc(OC)nc1C` (centres unmarked) [Example 269, 9-Chloro-6-(1-ethoxypropyl)-1-(6-methoxy-2-methylpyridin-3-yl)-1,2,3,4-tetrahydropyrimido[1,2-a]benzimidazole] returned a melting point of 174 to 176 °C. For the same compound, the pIC50 at human CRF1 receptor was above 6.00.

In turn, `CCC(OCC(F)(F)F)c1ccc(Cl)c2nc3n(c12)CCCN3c1ccc(OC)nc1C` (centres unmarked) [Example 272, 9-Chloro-1-(6-methoxy-2-methylpyridin-3-yl)-6-[1-(2,2,2-trifluoroethoxy)propyl]-1,2,3,4-tetrahydropyrimido[1,2-a]benzimidazole] gave a melting point of 124 to 126 °C. Further, the pIC50 on human CRF1 receptor is above 6.00.

In turn, `CCC(OCC(F)F)c1ccc(Cl)c2nc3n(c12)CCCN3c1ccc(OC)nc1C` (centres unmarked) [Example 273, 9-Chloro-6-[1-(2,2-difluoroethoxy)propyl]-1-(6-methoxy-2-methylpyridin-3-yl)-1,2,3,4-tetrahydropyrimido[1,2-a]benzimidazole] displayed a melting point of 130 to 132 °C. For the same compound, the pIC50 at human CRF1 receptor is above 6.00.

As for `COc1ccc(N2CCCn3c2nc2c(Cl)ccc(C(O)(C4CC4)C4CC4)c23)c(C)n1` [Example 276, [9-Chloro-1-(6-methoxy-2-methylpyridin-3-yl)-1,2,3,4-tetrahydropyrimido[1,2-a]benzimidazol-6-yl](dicyclopropyl)methanol], the melting point was in the range of 208 to 210 °C. The pIC50 at human CRF1 receptor was above 6.00.

Take `COc1ccc(N2CCCn3c2nc2c(Cl)ccc(C(OCC(F)(F)F)C4CC4)c23)c(C)n1` (centres unmarked) [Example 277, 9-Chloro-6-[cyclopropyl (2,2,2-trifluoroethoxy)methyl]1-(6-methoxy-2-methylpyridin-3-yl)-1,2,3,4-tetrahydropyrimido[1,2-a]benzimidazole]: the melting point fell in the range of 158 to 160 °C. Besides, the pIC50 on human CRF1 receptor was above 6.00.

`COc1ccc(N2CCCn3c2nc2c(Cl)ccc(C(OCC(F)F)C4CC4)c23)c(C)n1` (centres unmarked) [Example 278, 9-Chloro-6-[cyclopropyl(2,2-difluoroethoxy)methyl]-1-(6-methoxy-2-methylpyridin-3-yl)-1,2,3,4-tetrahydropyrimido[1,2-a]benzimidazole]: the melting point lay within 124 to 126 °C. Besides, at human CRF1 receptor, the pIC50 was above 6.00.

Take `COc1ccc(N2CCCn3c2nc2c(Cl)ccc(C(OC)C(F)(F)F)c23)c(C)n1` (centres unmarked) [Example 280, 9-Chloro-1-(6-methoxy-2-methylpyridin-3-yl)-6-(2,2,2-trifluoro-1-methoxyethyl)-1,2,3,4-tetrahydropyrimido[1,2-a]benzimidazole]: the melting point is 144 to 146 °C. The pIC50 on human CRF1 receptor was above 6.00.

With `CCCOc1ccc(N2CCCn3c2nc2c(Cl)ccc(C(OC(F)F)C(F)(F)F)c23)c(C)n1` (centres unmarked) [Example 289, 9-Chloro-6-[1-(difluoromethoxy)-2,2,2-trifluoroethyl]-1-(2-methyl-6-propoxypyridin-3-yl)-1,2,3,4-tetrahydropyrimido[1,2-a]benzimidazole], the melting point was in the range of 156 to 158 °C. The pIC50 on human CRF1 receptor is above 6.00.

In turn, `Cc1nc(OC(F)F)ccc1N1CCCn2c1nc1c(Cl)ccc(C(OC(F)F)C(F)(F)F)c12` (centres unmarked) [Example 290, 9-Chloro-1-[6-(difluoromethoxy)-2-methylpyridin-3-yl]-6-[1-(difluoromethoxy)-2,2,2-trifluoroethyl]-1,2,3,4-tetrahydropyrimido[1,2-a]benzimidazole] returned a melting point of 145 to 148 °C. In addition, at human CRF1 receptor, the pIC50 was above 6.00.

The compound `Cc1nc(C#N)ccc1N1CCCn2c1nc1c(Cl)ccc(C(OC(F)F)C(F)(F)F)c12` (centres unmarked) [Example 292, 5-{9-Chloro-6-[1-(difluoromethoxy)-2,2,2-trifluoroethyl]-3,4-dihydropyrimido[1,2-a]benzimidazol-1(2H)-yl}-6-methylpyridine-2-carbonitrile] gave a melting point of 177 to 180 °C. Further, on human CRF1 receptor, the pIC50 is above 6.00.

With `Cc1nc(N(C)C)ccc1N1CCCn2c1nc1c(Cl)ccc(C(OC(F)F)C(F)(F)F)c12` (centres unmarked) [Example 298, 5-{9-Chloro-6-[1-(difluoromethoxy)-2,2,2-trifluoroethyl]-3,4-dihydropyrimido[1,2-a]benzimidazol-1(2H)-yl}-N,N,6-trimethylpyridin-2-amine], the melting point is 233 to 235 °C. For the same compound, the pIC50 on human CRF1 receptor was above 6.00.

In turn, `CCC(F)c1ccc(Cl)c2nc3n(c12)CCCN3c1ccc(Cl)cc1Cl` (centres unmarked) [Example 304, 9-Chloro-1-(2,4-dichlorophenyl)-6-(1-fluoropropyl)-1,2,3,4-tetrahydropyrimido[1,2-a]benzimidazole] came in with a melting point of 172 to 174 °C. Besides, at human CRF1 receptor, the pIC50 was above 6.00.

Compound `CCC(OC1CC1)c1ccc(Cl)c2nc3n(c12)CCCN3c1ccc(Cl)cc1Cl` (centres unmarked) [Example 306, 9-Chloro-6-[1-(cyclopropyloxy)propyl]-1-(2,4-dichlorophenyl)-1,2,3,4-tetrahydropyrimido[1,2-a]benzimidazole] showed a melting point of 147 to 149 °C. The pIC50 on human CRF1 receptor is above 6.00.

In turn, `FC(F)(F)C(OC1CC1)c1ccc(Cl)c2nc3n(c12)CCCN3c1ccc(Cl)cc1Cl` (centres unmarked) [Example 308, 9-Chloro-6-[1-(cyclopropyloxy)-2,2,2-trifluoroethyl]-1-(2,4-dichlorophenyl)-1,2,3,4-tetrahydropyrimido[1,2-a]benzimidazole] registered a melting point of 197 to 200 °C. In addition, the pIC50 at human CRF1 receptor is above 6.00.

In the case of `COC(c1ccc(Cl)c2nc3n(c12)CCCN3c1ccc(Cl)cc1Cl)C(F)(F)F` (centres unmarked) [Example 309, 9-Chloro-1-(2,4-dichlorophenyl)-6-(2,2,2-trifluoro-1-methoxyethyl)-1,2,3,4-tetrahydropyrimido[1,2-a]benzimidazole], the melting point was in the range of 161 to 163 °C. In addition, the negative logarithm of the IC50 (pIC50) on human CRF1 receptor was above 6.00.

The compound `CCOC(c1ccc(Cl)c2nc3n(c12)CCCN3c1ccc(Cl)cc1Cl)C(F)(F)F` (centres unmarked) [Example 310, 9-Chloro-1-(2,4-dichlorophenyl)-6-(1-ethoxy-2,2,2-trifluoroethyl)-1,2,3,4-tetrahydropyrimido[1,2-a]benzimidazole] displayed a melting point of 129 to 131 °C. Besides, the pIC50 on human CRF1 receptor is above 6.00.

Compound `CC(=O)OC(c1ccc(Cl)c2nc3n(c12)CCCN3c1ccc(Cl)cc1Cl)C(F)(F)F` (centres unmarked) [Example 311, 1-[9-Chloro-1-(2,4-dichlorophenyl)-1,2,3,4-tetrahydropyrimido[1,2-a]benzimidazol-6-yl]-2,2,2-trifluoroethyl acetate] gave a melting point of 197 to 199 °C. The pIC50 at human CRF1 receptor is above 6.00.

Turning to `Clc1ccc(N2CCCn3c2nc2c(Cl)ccc(N(C4CC4)C4CC4)c23)c(Cl)c1` [Example 320, 9-Chloro-N,N-dicyclopropyl-1-(2,4-dichlorophenyl)-1,2,3,4-tetrahydropyrimido[1,2-a]benzimidazol-6-amine], the melting point was 211 to 213 °C. Further, at human CRF1 receptor, the pIC50 is above 6.00.

Turning to `Cc1cc(C#N)ccc1N1CCCn2c1nc1c(Cl)ccc(C(OC(F)F)C(F)(F)F)c12` (centres unmarked) [Example 325, 4-{9-chloro-6-[1-(difluoromethoxy)-2,2,2-trifluoroethyl]-3,4-dihydropyrimido[1,2-a]benzimidazol-1(2H)-yl}-3-methylbenzonitrile], the melting point fell in the range of 195 to 197 °C. Moreover, on human CRF1 receptor, the pIC50 was above 6.00.

On to `CCC(OC(C)=O)c1ccc(Cl)c2nc3n(c12)CCCCN3c1ncc(Cl)cc1Cl` (centres unmarked) [Example 329, 1-[10-Chloro-1-(3,5-dichloropyridin-2-yl)-2,3,4,5-tetrahydro-1H-[1,3]diazepino[1,2-a]benzimidazol-7-yl]propyl acetate], for which the melting point is 158 to 160 °C. For the same compound, the pIC50 on human CRF1 receptor is above 6.00.

With `CCC(OC(C)=O)c1ccc(Cl)c2nc3n(c12)CCCCN3c1ccc(OC)cc1Cl` (centres unmarked) [Example 334, 1-[10-Chloro-1-(2-chloro-4-methoxyphenyl)-2,3,4,5-tetrahydro-1H-[1,3]diazepino[1,2-a]benzimidazol-7-yl]propyl acetate], the melting point was 177 to 179 °C. In addition, the pIC50 on human CRF1 receptor was above 6.00.

Compound `CCN(CC)c1cc(F)cc2nc3n(c12)CCCN3c1ccc(Cl)cc1Cl` [Example 335, 1-(2,4-Dichlorophenyl)-N,N-diethyl-8-fluoro-1,2,3,4-tetrahydropyrimido[1,2-a]benzimidazol-6-amine] displayed a melting point of 142 to 145 °C. Also, at human CRF1 receptor, the pIC50 was above 6.00.

Turning to `CCC(CC)c1ccc(Cl)c2nc3n(c12)CCCN3c1cnc(N(C)C)cc1C` [Example 336, 5-[9-Chloro-6-(1-ethylpropyl)-3,4-dihydropyrimido[1,2-a]benzimidazol-1(2H)-yl]-N,N,4-trimethylpyridin-2-amine], the melting point lay within 228 to 230 °C. Moreover, at human CRF1 receptor, the pIC50 is above 6.00.

`CCC(CC)c1ccc(Cl)c2nc3n(c12)CCCCN3c1cnc(Br)c(C)c1` [Example 338, 1-(6-Bromo-5-methylpyridin-3-yl)-10-chloro-7-(1-ethylpropyl)-2,3,4,5-tetrahydro-1H-[1,3]diazepino[1,2-a]benzimidazole] yielded a melting point of 137 to 140 °C. Further, the pIC50 at human CRF1 receptor is above 6.00.

In turn, `CCC(CC)c1ccc(Cl)c2nc3n(c12)CCCCN3c1ncc(C#N)cc1C` [Example 339, 6-[10-Chloro-7-(1-ethylpropyl)-2,3,4,5-tetrahydro-1H-[1,3]diazepino[1,2-a]benzimidazol-1-yl]-5-methylpyridine-3-carbonitrile] yielded a melting point of 213 °C. For the same compound, on human CRF1 receptor, the pIC50 is above 6.00.
